# Measurements taken from US20170143674A1, “Use of Glutaryl Histamine for the Treatment of Respiratory Tract Diseases” (LTD "VALENTA-INTELLEKT", priority 2011, published 2017).
# “Also recorded” adds a separate entry of the source.
# How the values were obtained:
# [1] = tested on: lacunar tonsillitis; assay: open randomized comparative trial in lacunar tonsillitis; assay type: in vivo, human; details: 90 mg per day for 5 days with standard therapy
# Experimental: The effectiveness of glutaryl histamine for the treatment of lacunar tonsillitis was studied in an open randomized and comparative trial.
# The trial included 60 patients which were under medical supervision. When admitted to hospital, patients were randomized into two groups by a random sampling technique. The patients of the first group (30 subjects) received glutaryl histamine in an amount of 90 mg (1 pill) per day for 5 days (450 mg course dose) and standard therapy comprising antibacterial medicaments (penicillin 1 g I.M. 4 times a day or cefasoline 1 g I.M. 3 times a day for 7 days) and nosotropic agents. The patients of the second group (30 subjects) received only standard therapy.
# Laboratory analysis included: general blood test, determination of C-reactive protein, and microbiological analysis of tonsil smears. Laboratory data were analyzed on day 6 of the treatment. […]
# Statistical treatment of the obtained results. Values of quantitative variables were expressed as M±SE, wherein M is a mean value, and SE is a standard error of the mean. […]
# [2] = tested on: acute respiratory distress syndrome (ARDS); assay: ARDS model, single intravenous LPS 7.5 mg/kg; assay type: in vivo, rat; details: for Me (%) (mortality rate): 8 days; for Died: total number 10
# Experimental: Since an intravenous administration of lipopolysaccharide (LPS) to animals is one of the most acceptable models for studying the pathogenesis, pathomorphological changes and consequences of acute respiratory distress syndrome, this model was used in this example. Tested medicament glutaryl histamine was administered for 9 days after the first administration of LPS, i.e. glutaryl histamine was administered for 12 days in total (3 days before the induction of ARDS and 9 days during and after the induction). The exception was dexamethasone since, according to the literature data and the information leaflet, long-time administration of steroidal anti-inflammatory agents can cause severe side effects. For this reason, dexamethasone was administered according to the following schedule: 49, 24 and 1 hour before the induction of ARDS in a dose of 5 mg/kg, for 3 days after the first injection of LPS in the same dose; the medicament was withdrawn by a gradual dose reduction for 3 days. Thus, dexamethasone was administered 9 times.
# The mortality rate among the animals administered LPS in an intravenous dose of 7.5 mg/kg was 70% for 8 days. The most of them (60%) died on the first day, in particular, from 4 to 12-16 hours after the injection of LPS. The mortality rate among the animals administered glutaryl histamine was different from the rate in animals treated with dexamethasone; however, most of them also died on the first day, about in the same time period (Table 11).
# [3] = tested on: Escherichia coli (mouse-adapted strain 4300); assay: animal or person; assay type: in vivo, mice; details: for Mortality rate (%) / Survival rate (%): tenth day
# Experimental: Escherichia coli (mouse-adaptedstrain 4300, Institute collection) was used as an infectious agent. Mice were infected intravenously.
# Firstly, there were determined a lethal dose (LD100) of Escherichia coli to be intravenously administered to this line of mice with a certain weight. Fatal cases among mice were registered every day for ten days. […] For this purpose, mice were housed into cages (10 animals per cage) and infected with a lethal dose of Escherichia coli. One hour after each mouse was administered orally levofloxacin in doses of 1, 2, 4, 6, 8, 10, and 12 mg/kg. A group of mice infected with a lethal dose of Escherichia coli without the treatment was considered as a control group. Fatal cases among mice were registered every day for ten days.
# The next step of the experiment was to study an effect of combined administration of glutaryl histamine and levofloxacin on a model of E. coli sepsis in mice.
# In the experiment, mice were housed in following groups (10 animals per cage):
# Glutaryl histamine was administered orally in the corresponding doses to mice of groups 3, 4, 5, 6, 7, and 8 for 5 days. Five day after, all groups of mice were intravenously administered 0.2 ml of Escherichia coli in the lethal dose. […] After infection and administration of levofloxacin, glutaryl histamine was administered to mice of groups 3-8 for additional 5 days. During the experiment, the animals were observed every day, and fatal cases were registered (see Table 14).
compound,measurement,setting,value
O=C(O)CCCC(=O)NCCc1c[nH]cn1 [glutaryl histamine],tolerability / undesirable symptoms,[1],well tolerated; also recorded: none of the cases had undesirable symptoms
same,IP (%) (protective index),[2]; Glutaryl histamine 0.5 mg/kg,57.1%
same,S (%) (survival rate),[2]; Glutaryl histamine 0.5 mg/kg,70%
same,Me (%) (mortality rate),[2]; Glutaryl histamine 0.5 mg/kg,30%
same,Died,[2]; Glutaryl histamine 0.5 mg/kg,3
same,IP (%) (protective index),[2]; Glutaryl histamine 3 mg/kg,28.6%
same,S (%) (survival rate),[2]; Glutaryl histamine 3 mg/kg,50%
same,Me (%) (mortality rate),[2]; Glutaryl histamine 3 mg/kg,50%
same,Died,[2]; Glutaryl histamine 3 mg/kg,5
same,IP (%) (protective index),[2]; Glutaryl histamine 9 mg/kg,42.9%
same,S (%) (survival rate),[2]; Glutaryl histamine 9 mg/kg,60%
same,Me (%) (mortality rate),[2]; Glutaryl histamine 9 mg/kg,40%
same,Died,[2]; Glutaryl histamine 9 mg/kg,4
same,IP (%) (protective index),[2]; Glutaryl histamine 18 mg/kg,28.6%
same,S (%) (survival rate),[2]; Glutaryl histamine 18 mg/kg,50%
same,Me (%) (mortality rate),[2]; Glutaryl histamine 18 mg/kg,50%
same,Died,[2]; Glutaryl histamine 18 mg/kg,5
same,IP (%) (protective index),[2]; Glutaryl histamine 27 mg/kg,71.4%
same,S (%) (survival rate),[2]; Glutaryl histamine 27 mg/kg,80%
same,Me (%) (mortality rate),[2]; Glutaryl histamine 27 mg/kg,20%
same,Died,[2]; Glutaryl histamine 27 mg/kg,2
same,IP (%) (protective index),[2]; Glutaryl histamine 45 mg/kg,28.6%
same,S (%) (survival rate),[2]; Glutaryl histamine 45 mg/kg,50%
same,Me (%) (mortality rate),[2]; Glutaryl histamine 45 mg/kg,50%
same,Died,[2]; Glutaryl histamine 45 mg/kg,5
same,died/survived animals,"[3]; day 1, glutaryl histamine 15 mg/kg",0/10
same,died/survived animals,"[3]; day 1, glutaryl histamine 30 mg/kg",0/10
same,died/survived animals,"[3]; day 1, glutaryl histamine 45 mg/kg",0/10
same,died/survived animals,"[3]; day 2, glutaryl histamine 15 mg/kg",0/10
same,died/survived animals,"[3]; day 2, glutaryl histamine 30 mg/kg",0/10
same,died/survived animals,"[3]; day 2, glutaryl histamine 45 mg/kg",1/9
same,died/survived animals,"[3]; day 3, glutaryl histamine 15 mg/kg",0/10
same,died/survived animals,"[3]; day 3, glutaryl histamine 30 mg/kg",0/10
same,died/survived animals,"[3]; day 3, glutaryl histamine 45 mg/kg",1/9
same,died/survived animals,"[3]; day 4, glutaryl histamine 15 mg/kg",1/9
same,died/survived animals,"[3]; day 4, glutaryl histamine 30 mg/kg",1/9
same,died/survived animals,"[3]; day 4, glutaryl histamine 45 mg/kg",3/7
same,died/survived animals,"[3]; day 5, glutaryl histamine 15 mg/kg",2/8
same,died/survived animals,"[3]; day 5, glutaryl histamine 30 mg/kg",3/7
same,died/survived animals,"[3]; day 5, glutaryl histamine 45 mg/kg",5/5
same,died/survived animals,"[3]; day 6, glutaryl histamine 15 mg/kg",5/5
same,died/survived animals,"[3]; day 6, glutaryl histamine 30 mg/kg",6/4
same,died/survived animals,"[3]; day 6, glutaryl histamine 45 mg/kg",7/3
same,died/survived animals,"[3]; day 7, glutaryl histamine 15 mg/kg",6/4
same,died/survived animals,"[3]; day 7, glutaryl histamine 30 mg/kg",7/3
same,died/survived animals,"[3]; day 7, glutaryl histamine 45 mg/kg",8/2
same,died/survived animals,"[3]; day 8, glutaryl histamine 15 mg/kg",8/2
same,died/survived animals,"[3]; day 8, glutaryl histamine 30 mg/kg",7/3
same,died/survived animals,"[3]; day 8, glutaryl histamine 45 mg/kg",9/1
same,died/survived animals,"[3]; day 9, glutaryl histamine 15 mg/kg",8/2
same,died/survived animals,"[3]; day 9, glutaryl histamine 30 mg/kg",8/2
same,died/survived animals,"[3]; day 9, glutaryl histamine 45 mg/kg",9/1
same,died/survived animals,"[3]; day 10, glutaryl histamine 15 mg/kg",8/2
same,died/survived animals,"[3]; day 10, glutaryl histamine 30 mg/kg",8/2
same,died/survived animals,"[3]; day 10, glutaryl histamine 45 mg/kg",9/1
same,Mortality rate (%),[3]; glutaryl histamine 15 mg/kg,80%
same,Survival rate (%),[3]; glutaryl histamine 15 mg/kg,20%
same,Mortality rate (%),[3]; glutaryl histamine 30 mg/kg,80%
same,Survival rate (%),[3]; glutaryl histamine 30 mg/kg,20%
same,Mortality rate (%),[3]; glutaryl histamine 45 mg/kg,90%
same,Survival rate (%),[3]; glutaryl histamine 45 mg/kg,10%
